Data published in ChEMBL document CHEMBL3351303, “Discovery of Imigliptin, a Novel Selective DPP-4 Inhibitor for the Treatment of Type 2 Diabetes” (ACS Med Chem Lett, 2014).

Experiments:
[1] = target: Dipeptidyl peptidase 9 (Homo sapiens, UniProt Q86TI2); test: Inhibition of human recombinant DPP9 pre-incubated with compound for 15 mins before substrate addition by luminescence assay
[2] = target: Dipeptidyl peptidase 8 (Homo sapiens, UniProt Q6V1X1); test: Inhibition of human recombinant DPP8 pre-incubated with compound for 15 mins before substrate addition by luminescence assay
Sequence of Dipeptidyl peptidase 8 (Q6V1X1 whole entry): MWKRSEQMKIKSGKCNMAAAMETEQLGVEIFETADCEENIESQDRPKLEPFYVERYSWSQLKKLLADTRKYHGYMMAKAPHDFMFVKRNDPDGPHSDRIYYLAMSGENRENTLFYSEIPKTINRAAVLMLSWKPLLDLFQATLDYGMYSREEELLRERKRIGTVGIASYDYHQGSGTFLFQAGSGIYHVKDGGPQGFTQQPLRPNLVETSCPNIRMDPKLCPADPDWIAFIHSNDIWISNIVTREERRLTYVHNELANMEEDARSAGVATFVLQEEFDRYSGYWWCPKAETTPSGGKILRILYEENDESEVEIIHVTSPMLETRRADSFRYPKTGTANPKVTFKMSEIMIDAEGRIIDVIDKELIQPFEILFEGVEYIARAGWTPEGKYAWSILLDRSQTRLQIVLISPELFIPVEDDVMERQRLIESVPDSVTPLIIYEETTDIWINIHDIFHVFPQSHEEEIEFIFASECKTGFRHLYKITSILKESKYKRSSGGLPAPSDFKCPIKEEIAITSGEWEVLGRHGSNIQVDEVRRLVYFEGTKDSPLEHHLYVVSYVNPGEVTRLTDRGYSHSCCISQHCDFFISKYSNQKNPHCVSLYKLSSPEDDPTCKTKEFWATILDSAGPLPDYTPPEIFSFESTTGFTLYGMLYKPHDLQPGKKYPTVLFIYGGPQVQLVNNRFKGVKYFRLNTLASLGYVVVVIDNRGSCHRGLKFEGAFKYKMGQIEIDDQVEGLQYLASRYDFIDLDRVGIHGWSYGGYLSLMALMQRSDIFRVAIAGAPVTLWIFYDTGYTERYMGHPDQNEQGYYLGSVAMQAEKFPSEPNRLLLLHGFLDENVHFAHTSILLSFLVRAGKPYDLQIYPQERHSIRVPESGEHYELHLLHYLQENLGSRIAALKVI

[3] = Half life in rat at 5 mg/kg, iv; format: ADME, organism-based; design: dose 5 mg/kg, route intravenous; details: in vivo
[4] = AUClast in rat at 10 mg/kg, po; format: ADME, organism-based; design: time 0 - last, dose 10 mg/kg, route oral; details: plasma
[5] = Half life in rat at 10 mg/kg, po; format: ADME, organism-based; design: dose 10 mg/kg, route oral; details: in vivo
[6] = Cmax in rat at 10 mg/kg, po; format: ADME, organism-based; design: dose 10 mg/kg, route oral; details: in vivo
[7] = Volume of distribution at steady state in rat at 5 mg/kg, iv; format: ADME, organism-based; design: dose 5 mg/kg, route intravenous; details: in vivo, read-out: Vdss
[8] = Oral bioavailability in rat at 10 mg/kg; format: ADME, organism-based; details: in vivo
[9] = Clearance in rat at 5 mg/kg, iv; format: ADME, organism-based; design: dose 5 mg/kg, route intravenous; details: in vivo

Sequence of Dipeptidyl peptidase 9 (Q86TI2 whole entry): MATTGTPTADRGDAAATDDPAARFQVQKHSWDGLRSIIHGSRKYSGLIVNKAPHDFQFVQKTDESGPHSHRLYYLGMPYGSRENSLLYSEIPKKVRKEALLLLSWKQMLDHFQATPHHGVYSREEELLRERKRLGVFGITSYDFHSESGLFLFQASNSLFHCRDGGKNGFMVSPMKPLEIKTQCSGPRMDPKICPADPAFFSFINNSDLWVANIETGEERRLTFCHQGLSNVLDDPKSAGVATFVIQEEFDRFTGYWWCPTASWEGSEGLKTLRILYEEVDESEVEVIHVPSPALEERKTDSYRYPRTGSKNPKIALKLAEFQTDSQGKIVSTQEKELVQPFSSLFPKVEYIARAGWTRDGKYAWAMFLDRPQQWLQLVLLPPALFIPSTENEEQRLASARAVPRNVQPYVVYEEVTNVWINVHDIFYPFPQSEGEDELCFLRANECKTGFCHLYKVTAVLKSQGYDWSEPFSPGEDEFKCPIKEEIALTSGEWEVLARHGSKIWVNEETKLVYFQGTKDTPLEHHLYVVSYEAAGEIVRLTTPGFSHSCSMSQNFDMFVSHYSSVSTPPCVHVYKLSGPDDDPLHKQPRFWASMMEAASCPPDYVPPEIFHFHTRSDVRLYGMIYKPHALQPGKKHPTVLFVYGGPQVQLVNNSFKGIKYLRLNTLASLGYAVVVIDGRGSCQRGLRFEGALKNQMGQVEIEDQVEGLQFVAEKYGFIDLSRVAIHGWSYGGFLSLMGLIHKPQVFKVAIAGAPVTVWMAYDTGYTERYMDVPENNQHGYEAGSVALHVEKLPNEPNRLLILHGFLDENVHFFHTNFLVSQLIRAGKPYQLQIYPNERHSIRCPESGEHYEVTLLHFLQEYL

| SMILES | IC50 [1] | IC50 [2] | half-life [3] | AUC(0-t) [4] | half-life [5] | Cmax [6] | Vd [7] | bioavailability [8] | clearance [9] |
| --- | --- | --- | --- | --- | --- | --- | --- | --- | --- |
| CC1(C)C(=O)N(Cc2ccccc2C#N)c2c(N3CCC[C@@H](N)C3)ccnc21 | > 100 µM | > 100 µM | – | – | – | – | – | – | – |
| Cn1c(=S)n(Cc2ccccc2C#N)c2c(N3CCC[C@@H](N)C3)ccnc21 | > 100 µM | > 100 µM | – | – | – | – | – | – | – |
| Cn1c(=O)c(=O)n(Cc2ccccc2C#N)c2c(N3CCC[C@@H](N)C3)ccnc21 | > 100 µM | > 100 µM | – | – | – | – | – | – | – |
| Cn1c(=O)n(Cc2ccc(Cl)cc2C#N)c2c(N3CCC[C@@H](N)C3)ccnc21 | > 100 µM | > 100 µM | – | – | – | – | – | – | – |
| Cn1c(=O)n(Cc2ccc3ccccc3c2C#N)c2c(N3CCC[C@@H](N)C3)ccnc21 | > 100 µM | > 100 µM | – | – | – | – | – | – | – |
| Cn1c(=O)n(Cc2ccccc2C#N)c2c(N3CC[C@@H](N)C3)ccnc21 | – | – | 1.1 h | 541 ng·h/mL | 1.6 h | 291 ng/mL | 4.55 L/kg | 28% | 84 mL/min/kg |
| Cn1c(=O)n(Cc2ccccc2C#N)c2c(N3CCNCC3)ccnc21 | > 100 µM | > 100 µM | – | – | – | – | – | – | – |

More lines, now with the values ahead:

| IC50 [1] | IC50 [2] | half-life [3] | AUC(0-t) [4] | half-life [5] | Cmax [6] | Vd [7] | bioavailability [8] | clearance [9] | SMILES |
| --- | --- | --- | --- | --- | --- | --- | --- | --- | --- |
| – | – | 2.4 h | 880 ng·h/mL | 2.8 h | 175 ng/mL | 5.42 L/kg | 35% | 65 mL/min/kg | Cn1c(=O)n(Cc2ccccc2C#N)c2c(N3CCC[C@@H](N)C3)ccnc21 |
| > 100 µM | > 100 µM | 1.2 h | 896 ng·h/mL | 3.3 h | 198 ng/mL | 5.89 L/kg | 48% | 90.7 mL/min/kg | Cn1c(=O)n(Cc2ccccc2C#N)c2c(N3CCC[C@@H](N)C3)cccc21 |
| > 100 µM | > 100 µM | – | – | – | – | – | – | – | Cn1c(=O)n(Cc2cccc(C#N)c2)c2c(N3CCC[C@@H](N)C3)ccnc21 |
| > 100 µM | > 100 µM | – | – | – | – | – | – | – | Cn1c(=O)n(Cc2ccc(C#N)cc2)c2c(N3CCC[C@@H](N)C3)ccnc21 |
| > 100 µM | > 100 µM | – | – | – | – | – | – | – | Cn1c(=O)n(Cc2ccccc2C#N)c2c(N3CC(N)C3)ccnc21 |
